Patent US7727960B2, “C5a receptor antagonists” (Jerini AG, priority 2003, dated 2010)
Positions of bridges follow the written chain, without caps; N, C: chain ends. Non-standard residues stand in square brackets, D forms with d. Residues, ends and D or L forms follow the SMILES beside them. *: point of attachment. X3 = O=C1CNC(=O)N1[C@@H](Cc1ccccc1)C(=O)*; Dip = N[C@H](C(=O)O)C(c1ccccc1)c1ccccc1; Phe(4-NH2) = Nc1ccc(C[C@H](N)C(=O)O)cc1; Phe(4-Me) = Cc1ccc(C[C@H](N)C(=O)O)cc1; 2Nal = N[C@@H](Cc1ccc2ccccc2c1)C(=O)O; His(τ-Me) = Cn1cnc(C[C@H](N)C(=O)O)c1; Bta = N[C@@H](Cc1csc2ccccc12)C(=O)O; 4Pal = N[C@@H](Cc1ccncc1)C(=O)O; 2Thi = N[C@@H](Cc1cccs1)C(=O)O; dCha = N[C@H](CC1CCCCC1)C(=O)O; AllylGly = C=CC[C@H](N)C(=O)O; hLeu = CC(C)CC[C@H](N)C(=O)O; Pip = O=C(O)[C@@H]1CCCCN1; Nle = CCCC[C@H](N)C(=O)O; Orn = NCCC[C@H](N)C(=O)O; Aze = O=C(O)[C@@H]1CCN1; Nva = CCC[C@H](N)C(=O)O

T1: human C5aR (CD88) (Homo sapiens, UniProt P21730)
T1 construct: expressed in transfected cells; host or cells: rat basophilic leukemia cells (RBL)
T1 sequence (P21730 1-350): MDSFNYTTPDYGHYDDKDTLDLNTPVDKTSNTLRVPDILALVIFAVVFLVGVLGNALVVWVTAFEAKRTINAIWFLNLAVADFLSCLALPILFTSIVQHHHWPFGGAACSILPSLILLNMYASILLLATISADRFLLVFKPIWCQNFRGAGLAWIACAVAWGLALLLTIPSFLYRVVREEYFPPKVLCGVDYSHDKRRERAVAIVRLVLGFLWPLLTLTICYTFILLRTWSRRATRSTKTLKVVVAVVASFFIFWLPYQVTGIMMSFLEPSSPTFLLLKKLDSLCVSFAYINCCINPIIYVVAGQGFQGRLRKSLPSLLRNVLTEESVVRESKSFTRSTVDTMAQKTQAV

B1: hrC5a: hrC5a (Sigma) used for stimulation of the enzyme release; agonist control in Table 5 (protein)
chain: TLQKKIEEIAAKYKHSVVKKCCYDGACVNNDETCEQRAARISLGPRCIKAFTECCVVASQLRANISHKDMQLGR

Assays:
human C5aR (CD88) [1] = molecular target: T1, human C5aR (CD88); experiment: Determination of EC50 values in an enzyme release assay (agonistic activity, no C5a added); assay type: cell-based; settings: for agonistic activity (in words): cellular assay, up to a concentration of at least 1430 nM
Description: The determination of the EC50 value was performed in a way similar to the procedure described in example 11, with the only exception that 30 μl of the compound to be tested were mixed with 75 μl of the cell suspension described in example 11. There was no preincubation or addition of C5a for stimulation of the enzyme release.

human C5aR (CD88) [2] = molecular target: T1, human C5aR (CD88); experiment: Determination of the IC50 value in an enzyme release assay (functional assay, antagonistic activity); assay type: cell-based; settings: for IC50-value compared to compound 40 (in words): arginine replaced by hydrophobic substitutions; for inhibitory activity (in words): noteworthy = IC50 of less than 200 nM in the functional assay

| Molecule | agonistic activity (in words) (human C5aR (CD88) [1]) | inhibitory activity (in words) (human C5aR (CD88) [2]) | further results |
| --- | --- | --- | --- |
| CC(=O)N[C@@H](Cc1ccccc1)C(=O)N[C@@H](CCCN)C(=O)N1CCCC[C@H]1C(=O)N[C@H](CC1CCCCC1)C(=O)N[C@@H](Cc1c[nH]c2ccccc12)C(=O)N[C@@H](Cc1ccccc1)C(N)=O [Compound 55, Ac-Phe-Orn-Pip-cha-Trp-Phe-NH2] (Ac-F[Orn][Pip][dCha]WF-NH2) | pure antagonists | – | – |
| CC(=O)N[C@@H](Cc1ccccc1)C(=O)N[C@@H](CCCN)C(=O)N1CCC[C@H]1C(=O)N[C@H](CC1CCCCC1)C(=O)N[C@@H](Cc1c[nH]c2ccccc12)C(=O)N[C@@H](Cc1ccccc1)C(N)=O [Compound 51, Ac-Phe-Orn-Pro-cha-Trp-Phe-NH2] (Ac-F[Orn]P[dCha]WF-NH2) | pure antagonists | – | – |
| CC(=O)N[C@H](C(=O)N[C@@H](CCCN)C(=O)N1CCC[C@H]1C(=O)N[C@H](CC1CCCCC1)C(=O)N[C@@H](Cc1c[nH]c2ccccc12)C(=O)N[C@@H](Cc1ccccc1)C(N)=O)C(c1ccccc1)c1ccccc1 [Compound 71, Ac-Ebw-Orn-Pro-cha-Trp-Phe-NH2] (Ac-[Dip][Orn]P[dCha]WF-NH2) | pure antagonists | – | – |
| CC(=O)N[C@@H](Cc1cccs1)C(=O)N[C@@H](CCCN)C(=O)N1CCCC[C@H]1C(=O)N[C@H](CC1CCCCC1)C(=O)N[C@@H](Cc1csc2ccccc12)C(=O)N[C@@H](Cc1ccccc1)C(N)=O [Compound 67, Ac-Thi-Orn-Pip-cha-Bta-Phe-NH2] (Ac-[2Thi][Orn][Pip][dCha][Bta]F-NH2) | pure antagonists | – | – |
| Ac-Phe-Orn-cha-cha-Bta-Phe-NH2 | pure antagonists | – | – |
| C=CC[C@@H]1NC(=O)[C@H](Cc2c[nH]c3ccccc23)NC(=O)[C@@H](CC2CCCCC2)NC(=O)[C@@H]2CCCN2C(=O)[C@@H](NC(=O)[C@H](Cc2ccccc2)NC(C)=O)CCCNC1=O [Compound 33, Ac-Phe-[Orn-Pro-cha-Trp-Eaf]] (Ac-F[Orn]P[dCha]W[AllylGly]; lactam 2-C) | pure antagonists | noteworthy inhibitory activity | IC50-value compared to compound 40 (in words) (human C5aR (CD88) [2]): without a significant increase of the IC50-value |
| CC(=O)N[C@@H](Cc1ccccc1)C(=O)N[C@@H](CCCNC(=N)N)C(=O)N1CCC[C@H]1C(=O)N[C@H](CC1CCCCC1)C(=O)N[C@@H](Cc1c[nH]c2ccccc12)C(=O)N[C@@H](Cc1ccccc1)C(N)=O [Compound 88, Ac-Phe-Arg-Pro-cha-Trp-Phe-NH2] (Ac-FRP[dCha]WF-NH2) | pure antagonists | – | – |
| CC(=O)N[C@@H](Cc1ccccc1)C(=O)N[C@H]1CCCNC(=O)[C@H](Cc2cn(C)cn2)NC(=O)[C@H](Cc2c[nH]c3ccccc23)NC(=O)[C@@H](CC2CCCCC2)NC(=O)[C@@H]2CCCN2C1=O [Compound 20, Ac-Phe-[Orn-Pro-cha-Trp-Ecr]] (Ac-F[Orn]P[dCha]W[His(τ-Me)]; lactam 2-C) | – | noteworthy inhibitory activity | – |
| H-Phe-[Orn-Pro-cha-Trp-Phe] | pure antagonists | – | – |
| CC(=O)N[C@@H](Cc1ccccc1)C(=O)N[C@@H](CCCN)C(=O)N1CC[C@H]1C(=O)N[C@H](CC1CCCCC1)C(=O)N[C@@H](Cc1c[nH]c2ccccc12)C(=O)N[C@@H](Cc1ccccc1)C(N)=O [Compound 83, Ac-Phe-Orn-Aze-cha-Trp-Phe-NH2] (Ac-F[Orn][Aze][dCha]WF-NH2) | pure antagonists | – | – |
| CC(=O)N[C@@H](Cc1ccccc1)C(=O)N[C@H]1CCCNC(=O)[C@H](Cc2ccc(N)cc2)NC(=O)[C@H](Cc2c[nH]c3ccccc23)NC(=O)[C@@H](CC2CCCCC2)NC(=O)[C@@H]2CCCN2C1=O [Compound 14, Ac-Phe-[Orn-Pro-cha-Trp-Paf]] (Ac-F[Orn]P[dCha]W[Phe(4-NH2)]; lactam 2-C) | – | noteworthy inhibitory activity | – |
| CC(=O)N[C@@H](Cc1ccccc1)C(=O)N[C@H]1CCCNC(=O)[C@H](Cc2ccc3ccccc3c2)NC(=O)[C@H](Cc2c[nH]c3ccccc23)NC(=O)[C@@H](CC2CCCCC2)NC(=O)[C@@H]2CCCN2C1=O [Compound 37, Ac-Phe-[Orn-Pro-cha-Trp-2Ni]] (Ac-F[Orn]P[dCha]W[2Nal]; lactam 2-C) | – | noteworthy inhibitory activity | IC50-value compared to compound 40 (in words) (human C5aR (CD88) [2]): without a significant increase of the IC50-value |
| CCCC[C@@H]1NC(=O)[C@H](Cc2c[nH]c3ccccc23)NC(=O)[C@@H](CC2CCCCC2)NC(=O)[C@H](CO)NC(=O)[C@@H](NC(=O)[C@@H](N)Cc2ccccc2)CCCNC1=O [Compound 44, H-Phe-[Orn-Ser-cha-Trp-Nle]] (H-F[Orn]S[dCha]W[Nle]; lactam 2-C) | pure antagonists | – | – |
| Ac-Phe-[Orn-Pro-cha-Trp-Ppa] (Ac-F[Orn]P[dCha]W[4Pal]; lactam 2-C (inferred)) | – | noteworthy inhibitory activity | – |
| NCCC[C@H](NC(=O)[C@H](Cc1ccccc1)N1C(=O)CNC1=O)C(=O)N1CCC[C@H]1C(=O)N[C@H](CC1CCCCC1)C(=O)N[C@@H](Cc1csc2ccccc12)C(=O)N[C@@H](Cc1ccccc1)C(N)=O [Compound 130, (—CO—CH2—NH—CO—)-Phe-Orn-Pro-cha-Bta-Phe-NH2] (X3-[Orn]P[dCha][Bta]F-NH2) | – | – | IC50 (human C5aR (CD88) [2]; antagonistic activity, enzyme release assay in RBL cells expressing human C5aR (CD88), read-out: activity (group)): 50 to 200 nM |
| Ac-Phe-[Orn-Ser-cha-Trp-Phe] | – | noteworthy inhibitory activity | – |
| CCC[C@@H]1NC(=O)[C@H](Cc2c[nH]c3ccccc23)NC(=O)[C@@H](CC2CCCCC2)NC(=O)[C@@H]2CCCN2C(=O)[C@@H](NC(=O)[C@H](Cc2ccccc2)NC(C)=O)CCCNC1=O [Compound 31, Ac-Phe-[Orn-Pro-cha-Trp-Nva]] (Ac-F[Orn]P[dCha]W[Nva]; lactam 2-C) | – | noteworthy inhibitory activity | IC50-value compared to compound 40 (in words) (human C5aR (CD88) [2]): without a significant increase of the IC50-value |
| CC(=O)N[C@@H](Cc1ccccc1)C(=O)N[C@@H](CCCN)C(=O)N1CCC[C@H]1C(=O)N[C@H](CC1CCCCC1)C(=O)N[C@@H](Cc1csc2ccccc12)C(=O)N[C@@H](Cc1ccccc1)C(N)=O [Compound 62, Ac-Phe-Orn-Pro-cha-Bta-Phe-NH2] (Ac-F[Orn]P[dCha][Bta]F-NH2) | pure antagonists | – | – |
| CC(=O)N[C@@H](Cc1ccccc1)C(=O)N[C@H]1CCCNC(=O)[C@H](Cc2cccs2)NC(=O)[C@H](Cc2c[nH]c3ccccc23)NC(=O)[C@@H](CC2CCCCC2)NC(=O)[C@@H]2CCCN2C1=O [Compound 38, Ac-Phe-[Orn-Pro-cha-Trp-Thi]] (Ac-F[Orn]P[dCha]W[2Thi]; lactam 2-C) | – | noteworthy inhibitory activity | IC50-value compared to compound 40 (in words) (human C5aR (CD88) [2]): without a significant increase of the IC50-value |
| CCSC[C@@H]1NC(=O)[C@H](Cc2c[nH]c3ccccc23)NC(=O)[C@@H](CC2CCCCC2)NC(=O)[C@@H]2CCCN2C(=O)[C@@H](NC(=O)[C@H](Cc2ccccc2)NC(C)=O)CCCNC1=O [Compound 34, Ac-Phe-[Orn-Pro-cha-Trp-Ebd]] (Ac-F[Orn]P[dCha]WC(Et); lactam 2-C) | – | noteworthy inhibitory activity | IC50-value compared to compound 40 (in words) (human C5aR (CD88) [2]): without a significant increase of the IC50-value |
| CC(=O)N[C@@H](Cc1ccccc1)C(=O)N[C@H]1CCCNC(=O)[C@H](Cc2ccc(C)cc2)NC(=O)[C@H](Cc2c[nH]c3ccccc23)NC(=O)[C@@H](CC2CCCCC2)NC(=O)[C@@H]2CCCN2C1=O [Compound 36, Ac-Phe-[Orn-Pro-cha-Trp-Pmf]] (Ac-F[Orn]P[dCha]W[Phe(4-Me)]; lactam 2-C) | – | noteworthy inhibitory activity | IC50-value compared to compound 40 (in words) (human C5aR (CD88) [2]): without a significant increase of the IC50-value |
| CC(=O)N[C@@H](Cc1ccccc1)C(=O)N[C@@H](Cc1c[nH]c2ccccc12)C(=O)N1CCC[C@H]1C(=O)N[C@H](CC1CCCCC1)C(=O)N[C@@H](Cc1c[nH]c2ccccc12)C(=O)N[C@@H](Cc1ccccc1)C(N)=O [Compound 84, Ac-Phe-Trp-Pro-cha-Trp-Phe-NH2] (Ac-FWP[dCha]WF-NH2) | pure antagonists | – | – |
| CC(=O)N[C@@H](Cc1ccccc1)C(=O)N[C@H]1CCCNC(=O)[C@H](CCC(C)C)NC(=O)[C@H](Cc2c[nH]c3ccccc23)NC(=O)[C@@H](CC2CCCCC2)NC(=O)[C@@H]2CCCN2C1=O [Compound 32, Ac-Phe-[Orn-Pro-cha-Trp-Hle]] (Ac-F[Orn]P[dCha]W[hLeu]; lactam 2-C) | – | noteworthy inhibitory activity | IC50-value compared to compound 40 (in words) (human C5aR (CD88) [2]): without a significant increase of the IC50-value |
| B1 | – | – | EC50 (human C5aR (CD88) [1]; agonistic activity, no preincubation or addition of C5a): 2.4 nM |
